Here are results for 16 molecules from ChEMBL document CHEMBL5137037, “Phage Display Selected Cyclic Peptide Inhibitors of Kallikrein-Related Peptidases 5 and 7 and Their In Vivo Delivery to the Skin” (J Med Chem, 2022).

Usually half-life stands for how long it takes for the measured level to halve. As a reminder, the Ki is the dissociation constant of the complex between target and ligand, obtained from inhibition or displacement. Usually Kd stands for a measure of binding affinity in units of concentration. Read a low Kd as higher affinity.

Series [1] in a line: Stability of the compound in human plasma assessed as half life […] by LC-MS analysis. Format: ADME, cell-free.
Series [2] has as its target T1, Kallikrein-5 (Homo sapiens, UniProt Q9Y337).
T1 sequence (Q9Y337 whole entry): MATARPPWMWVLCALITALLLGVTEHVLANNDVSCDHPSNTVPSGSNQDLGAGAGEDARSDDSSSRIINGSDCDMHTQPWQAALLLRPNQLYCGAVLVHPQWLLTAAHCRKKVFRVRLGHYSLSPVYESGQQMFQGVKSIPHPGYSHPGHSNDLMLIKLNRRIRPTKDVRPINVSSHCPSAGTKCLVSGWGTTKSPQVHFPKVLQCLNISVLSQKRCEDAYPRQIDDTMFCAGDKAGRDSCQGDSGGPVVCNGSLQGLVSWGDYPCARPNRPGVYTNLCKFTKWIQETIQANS
Briefly: Inhibition of C-terminal poly-His-tagged human recombinant KLK5 (30 to 293 residues) transfected in CHO cells assessed as inhibition constant using Boc-VPR-AMC as fluorogenic substrate incubated for 30 mins by fluorescence plate reader assay. Format: cell-based.

In series [3] the target is Albumin (Homo sapiens, UniProt P02768). Nature of the series: Binding affinity to human serum albumin by fluorescence polarization assay.
Series [4] has as its target Kallikrein-7 (Homo sapiens, UniProt P49862). Nature of the series: Inhibition of C-terminal poly-His-tagged human recombinant KLK7 (30 to 253 residues) transfected in CHO cells assessed as inhibition constant using KHLY-pNA as fluorogenic substrate incubated for 30 mins by fluorescence plate reader assay. Format: cell-based.

Each structure is given as a SMILES string. Numbered stars: 1 amine (or outer) side, 2 acyl side, 3 side chain; on linkers, the order of the positions; unused ones are H or OH. Bridge positions count the residues as written; N and C are the ends. Peptide text beside a SMILES is read from it. Pyridine(2,6-diCH2) = c1cc(C[*:1])nc(C[*:2])c1; CH2COCH2 = O=C(C[*:1])C[*:2] A value given as a limit tells only on which side of the number the result lay.

Albumin, sequence (P02768 whole entry, the tested form may be a part): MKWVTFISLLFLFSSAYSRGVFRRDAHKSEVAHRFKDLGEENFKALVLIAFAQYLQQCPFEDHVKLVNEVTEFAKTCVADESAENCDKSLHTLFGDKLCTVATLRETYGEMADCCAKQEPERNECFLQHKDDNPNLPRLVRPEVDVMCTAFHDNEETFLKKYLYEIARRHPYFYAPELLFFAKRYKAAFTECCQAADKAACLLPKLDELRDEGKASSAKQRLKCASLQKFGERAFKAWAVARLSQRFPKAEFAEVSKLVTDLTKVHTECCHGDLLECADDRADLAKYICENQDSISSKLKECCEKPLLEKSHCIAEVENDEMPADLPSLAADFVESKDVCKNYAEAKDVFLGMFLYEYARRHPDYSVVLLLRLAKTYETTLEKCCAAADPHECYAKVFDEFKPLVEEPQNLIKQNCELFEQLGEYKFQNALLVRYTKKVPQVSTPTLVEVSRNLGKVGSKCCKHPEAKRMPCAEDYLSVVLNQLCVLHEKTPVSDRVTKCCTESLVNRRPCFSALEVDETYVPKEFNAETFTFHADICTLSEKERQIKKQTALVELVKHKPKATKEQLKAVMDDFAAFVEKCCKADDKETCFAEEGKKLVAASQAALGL
Kallikrein-7, sequence (P49862 whole entry, the tested form may be a part): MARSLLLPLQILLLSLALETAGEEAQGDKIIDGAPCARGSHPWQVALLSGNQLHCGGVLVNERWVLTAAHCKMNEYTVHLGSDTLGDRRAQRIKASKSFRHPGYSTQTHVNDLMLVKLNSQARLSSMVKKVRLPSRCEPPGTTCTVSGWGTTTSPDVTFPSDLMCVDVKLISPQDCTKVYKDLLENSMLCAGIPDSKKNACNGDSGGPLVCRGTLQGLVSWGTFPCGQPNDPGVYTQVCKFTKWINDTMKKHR

In the case of `CCCCCCCCCCCCCCCC(=O)NCCCC[C@H](NC(=O)[C@H](CCC(=O)O)NC(=O)[C@H](Cc1ccc(O)cc1)NC(=O)[C@H](CCC(=O)O)NC(=O)COCCOCCNC(=O)c1ccc(-c2c3ccc(=O)cc-3oc3cc(O)ccc23)c(C(=O)O)c1)C(=O)N[C@@H](CCC(=O)O)C(=O)N[C@@H](Cc1ccc(O)cc1)C(=O)N[C@@H](CCC(=O)O)C(=O)NCCOCCOCC(=O)NCCCC[C@H](NC(=O)CNC(=O)[C@@H]1CSCC(=O)CSC[C@H](NC(=O)[C@@H]2CCCN2)C(=O)N[C@@H](CC(C)C)C(=O)N[C@@H](Cc2ccc(O)cc2)C(=O)N[C@@H](CCCC)C(=O)N[C@@H](C)C(=O)NCC(=O)N1)C(=O)NCC(N)=O`, the half-life in series [1] was more than 96 h.

For the molecule `CC(C)C[C@@H]1NC(=O)[C@@H](NC(=O)[C@H](CCC(N)=O)NC(=O)[C@@H]2CCCN2C(=O)[C@H](CC(N)=O)NC(=O)[C@H](C)NC(=O)[C@@H]2CSCC(=O)CSC[C@H](NC(=O)[C@H](C)N)C(=O)N[C@@H]([C@@H](C)O)C(=O)N[C@@H](CCCNC(=N)N)C(=O)N[C@@H](CCC(=O)O)C(=O)N[C@@H](Cc3ccc(O)cc3)C(=O)N[C@@H](CC(N)=O)C(=O)N3CCC[C@H]3C(=O)N[C@@H](CCC(N)=O)C(=O)N2)CSCC(=O)CSC[C@@H](C(=O)N[C@@H](Cc2cnc[nH]2)C(=O)O)NC1=O`, the Ki in series [2] turned out to be 28 nM.

Consider `CCCCCCCCCCCCCCCC(=O)NCCCC[C@H](NC(=O)[C@H](CCC(=O)O)NC(=O)[C@H](Cc1ccc(O)cc1)NC(=O)[C@H](CCC(=O)O)NC(=O)COCCOCCNC(=O)c1ccc(-c2c3ccc(=O)cc-3oc3cc(O)ccc23)c(C(=O)O)c1)C(=O)N[C@@H](CCC(=O)O)C(=O)N[C@@H](Cc1ccc(O)cc1)C(=O)N[C@@H](CCC(=O)O)C(=O)NCCOCCOCC(=O)N[C@H]1CSCC(=O)CSC[C@@H](C(N)=O)NC(=O)[C@@H]2CCCN2C(=O)[C@H](Cc2ccc(O)cc2)NC(=O)[C@H](CCC(N)=O)NC(=O)[C@H](CCCNC(=N)N)NC(=O)[C@H]([C@@H](C)O)NC1=O`, for which the Ki in series [2] was found to be 23 nM. In addition, the Kd in series [3] was found to be 118 nM.

For `C[C@@H](O)[C@@H]1NC(=O)[C@@H](NC(=O)CN)CSCC(=O)CSC[C@@H](C(=O)O)NC(=O)[C@@H]2CCCN2C(=O)[C@H](Cc2ccc(O)cc2)NC(=O)[C@H](CCC(=O)O)NC(=O)[C@H](CCCNC(=N)N)NC1=O`, in series [2], the Ki was determined as 3.2 nM.

As to `C[C@@H](O)[C@@H]1NC(=O)[C@@H](NC(=O)CN)CSCC(=O)CSC[C@@H](C(=O)O)NC(=O)[C@@H]2CCCN2C(=O)[C@H](Cc2c[nH]c3ccccc23)NC(=O)[C@H](CCC(N)=O)NC(=O)[C@H](CCCNC(=N)N)NC1=O`, the Ki in series [2] came to 3.6 nM.

With `CCCCCCCCCCCCCCCC(=O)NCCCC[C@H](NC(=O)[C@H](CCC(=O)O)NC(=O)[C@H](Cc1ccc(O)cc1)NC(=O)[C@H](CCC(=O)O)NC(=O)COCCOCCNC(=O)c1ccc(-c2c3ccc(=O)cc-3oc3cc(O)ccc23)c(C(=O)O)c1)C(=O)N[C@@H](CCC(=O)O)C(=O)N[C@@H](Cc1ccc(O)cc1)C(=O)N[C@@H](CCC(=O)O)C(=O)NCCOCCOCC(=O)NCCCC[C@H](NC(=O)CNC(=O)[C@@H]1CSCC(=O)CSC[C@H](NC(=O)[C@@H]2CCCN2)C(=O)N[C@@H](CC(C)C)C(=O)N[C@@H](Cc2ccc(O)cc2)C(=O)N[C@@H](CCCC)C(=O)N[C@@H](C)C(=O)N[C@@H](CCCCNC(=N)N)C(=O)N1)C(=O)NCC(N)=O`, the half-life in series [1] is 4 h.

As to `CC(C)[C@H](NC(=O)[C@H]1CSCc2cccc(n2)CSC[C@@H](NC(=O)[C@H](CO)NC(=O)CNC(=O)[C@@H]2CCCN2C(=O)[C@@H](NC(=O)[C@H](CO)NC(=O)[C@H](CC(=O)O)NC(=O)[C@@H]2CSCc3cccc(n3)CSC[C@@H](NC(=O)CN)C(=O)N[C@@H]([C@@H](C)O)C(=O)N[C@@H](CCCNC(=N)N)C(=O)N[C@@H](CCC(N)=O)C(=O)N[C@@H](Cc3c[nH]c4ccccc34)C(=O)N3CCC[C@H]3C(=O)N2)C(C)C)C(=O)N[C@@H]([C@@H](C)O)C(=O)N1)C(=O)O`, the inhibitory constant (Ki) in series [2] (cho) is 2 nM.

On to `CCCCCCCCCCCCCCCC(=O)NCCCC[C@H](NC(=O)[C@H](CCC(=O)O)NC(=O)[C@H](Cc1ccc(O)cc1)NC(=O)[C@H](CCC(=O)O)NC(=O)COCCOCCNC(=O)c1ccc(-c2c3ccc(=O)cc-3oc3cc(O)ccc23)c(C(=O)O)c1)C(=O)N[C@@H](CCC(=O)O)C(=O)N[C@@H](Cc1ccc(O)cc1)C(=O)N[C@@H](CCC(=O)O)C(=O)NCCOCCOCC(=O)N1CCC[C@H]1C(=O)N[C@H]1CSCC(=O)CSC[C@@H](C(=O)N[C@@H](CO)C(N)=O)NC(=O)[C@H](CCCNC(=N)N)NC(=O)[C@H](C)NC(=O)[C@H](CC(C)C)NC(=O)[C@H](Cc2ccc(O)cc2)NC(=O)[C@H](CC(C)C)NC1=O`, for which the Ki in series [4] came out at 106 nM. The dissociation constant Kd in series [3] was 168 nM.

On to `CCCCCCCCCCCCCCCC(=O)NCCCC[C@H](NC(=O)[C@H](CCC(=O)O)NC(=O)[C@H](Cc1ccc(O)cc1)NC(=O)[C@H](CCC(=O)O)NC(=O)COCCOCCNC(=O)c1ccc(-c2c3ccc(=O)cc-3oc3cc(O)ccc23)c(C(=O)O)c1)C(=O)N[C@@H](CCC(=O)O)C(=O)N[C@@H](Cc1ccc(O)cc1)C(=O)N[C@@H](CCC(=O)O)C(=O)NCCOCCOCC(=O)NCCCC[C@H](NC(=O)CNC(=O)[C@@H]1CSCC(=O)CSC[C@H](NC(=O)[C@@H]2CCCN2)C(=O)N[C@@H](CC(C)C)C(=O)N[C@@H](Cc2ccc(O)cc2)C(=O)N[C@@H](CCCC)C(=O)N[C@@H](C)C(=O)N[C@@H](CCCNC(N)=O)C(=O)N1)C(=O)NCC(N)=O`, for which the half-life in series [1] is more than 96 h.

Turning to `C[C@@H](O)[C@@H]1NC(=O)[C@@H](NC(=O)CN)CSCC(=O)CSC[C@@H](C(=O)O)NC(=O)[C@@H]2CCCN2C(=O)[C@H](Cc2c[nH]c3ccccc23)NC(=O)[C@H](CCC(=O)O)NC(=O)[C@H](CCCNC(=N)N)NC1=O`, the Ki in series [2] was 5.1 nM.

As for `CSCC[C@H](N)C(=O)N[C@H]1CSCC(=O)CSC[C@@H](C(=O)N[C@H]2CSCC(=O)CSC[C@@H](C(=O)N3CCC[C@H]3C(=O)O)NC(=O)[C@H]([C@@H](C)O)NC(=O)[C@H](CCCNC(=N)N)NC(=O)[C@H](CCC(N)=O)NC(=O)[C@@H]3CCCN3C2=O)NC(=O)[C@H](CC(C)C)NC(=O)[C@H](CO)NC(=O)[C@@H]2CCCN2C(=O)[C@H](CC(=O)O)NC(=O)[C@H](Cc2c[nH]c3ccccc23)NC(=O)[C@H](CCC(N)=O)NC(=O)[C@H](CCCNC(=N)N)NC(=O)[C@H](CO)NC1=O`, the Ki in series [2] is 24 nM.

As for `CC(C)[C@H](NC(=O)[C@H]1CSCc2cccc(n2)CSC[C@@H](NC(=O)[C@H](CO)NC(=O)CNC(=O)[C@@H]2CCCN2C(=O)[C@@H](NC(=O)[C@H](CO)NC(=O)[C@H](CC(=O)O)NC(=O)[C@@H]2CSCc3cccc(n3)CSC[C@H](NC(=O)CN)C(=O)N[C@@H]([C@@H](C)O)C(=O)N[C@@H](CCCNC(=N)N)C(=O)N[C@@H](CCC(N)=O)C(=O)N[C@@H](Cc3c[nH]c4ccccc34)C(=O)N3CCC[C@H]3C(=O)N2)C(C)C)C(=O)N[C@@H]([C@@H](C)O)C(=O)N1)C(=O)O`, the Ki in series [2] (cho) came to 2.7 nM.

In the case of `CCCCCCCCCCCCCCCC(=O)NCCCC[C@H](NC(=O)[C@H](CCC(=O)O)NC(=O)[C@H](Cc1ccc(O)cc1)NC(=O)[C@H](CCC(=O)O)NC(=O)COCCOCCNC(=O)c1ccc(-c2c3ccc(=O)cc-3oc3cc(O)ccc23)c(C(=O)O)c1)C(=O)N[C@@H](CCC(=O)O)C(=O)N[C@@H](Cc1ccc(O)cc1)C(=O)N[C@@H](CCC(=O)O)C(=O)NCCOCCOCC(=O)NCCCC[C@H](NC(=O)CNC(=O)[C@@H]1CSCC(=O)CSC[C@H](NC(=O)[C@@H]2CCCN2)C(=O)N[C@@H](CC(C)C)C(=O)N[C@@H](Cc2ccc(O)cc2)C(=O)N[C@@H](CC(C)C)C(=O)N[C@@H](C)C(=O)N[C@@H](CCCNC(=N)N)C(=O)N1)C(=O)NCC(N)=O`, in series [4], the Ki amounted to 31 nM. The half-life in series [1] was 0.4 h. The same molecule showed a Kd in series [3] of 164 nM.

For the molecule `CC(C)[C@@H]1NC(=O)[C@H](CCC(N)=O)NC(=O)[C@H](CCCNC(=N)N)NC(=O)[C@H]([C@@H](C)O)NC(=O)[C@@H](NC(=O)CN)CSCc2cccc(n2)CSC[C@@H](C(=O)N[C@@H](CCC(N)=O)C(=O)N[C@@H](CCC(N)=O)C(=O)N[C@H](C(=O)N2CCC[C@H]2C(=O)N[C@@H](C)C(=O)N[C@H]2CSCc3cccc(n3)CSC[C@@H](C(=O)N[C@@H](CC(N)=O)C(=O)O)NC(=O)[C@H](C)NC(=O)[C@H](CO)NC(=O)[C@@H]3CCCN3C2=O)[C@@H](C)O)NC1=O` (H-GCTRQVCQQTPACPSACN-OH; linker 2-7, 13-17 via Pyridine(2,6-diCH2)), the Ki in series [2] was found to be 7 nM.

Turning to `C[C@@H](O)[C@@H]1NC(=O)[C@@H](NC(=O)CN)CSCC(=O)CSC[C@@H](C(=O)O)NC(=O)[C@@H]2CCCN2C(=O)[C@H](Cc2ccc(O)cc2)NC(=O)[C@H](CCC(N)=O)NC(=O)[C@H](CCCNC(=N)N)NC1=O` (H-GCTRQYPC-OH; linker 2-8 via CH2COCH2), the Ki in series [2] was determined as 2.2 nM. For the same molecule, the half-life in series [1] is less than 0.0833 h. Also, the Kd in series [3] was 39 nM.

As to `CC(C)C[C@@H]1NC(=O)[C@H](Cc2ccc(O)cc2)NC(=O)[C@H](CC(C)C)NC(=O)[C@@H](NC(=O)[C@@H]2CCCN2)CSCC(=O)CSC[C@@H](C(=O)N[C@@H](CO)C(=O)O)NC(=O)[C@H](CCCNC(=N)N)NC(=O)[C@H](C)NC1=O` (H-PCLYLARCS-OH; linker 2-8 via CH2COCH2), in series [4] (cho), the Ki was 16 nM. The half-life in series [1] is less than 0.0833 h. In series [3], the Kd is 39 nM.
